# What was measured:
# [1] = system: M14; assay: NCI antiproliferative SRB assay, Melanoma panel; assay type: cell-based, Human
# [2] = system: MDA-MB-231; assay: NCI antiproliferative SRB assay, Breast Cancer panel; assay type: cell-based
# [3] = system: Ovarian Cancer cell line panel; assay: NCI antiproliferative assay, panel summary; assay type: cell-based, Human
# [4] = system: OVCAR-5; assay: NCI antiproliferative SRB assay, Ovarian Cancer panel; assay type: cell-based, Human
# [5] = system: UO-31; assay: NCI antiproliferative SRB assay, Renal Cancer panel; assay type: cell-based, Human
# [6] = system: Colon Cancer cell line panel; assay: NCI antiproliferative assay, panel summary; assay type: cell-based, Human
# [7] = system: SK-MEL-28; assay: NCI antiproliferative SRB assay, Melanoma panel; assay type: cell-based, Human
# [8] = system: U251; assay: NCI antiproliferative SRB assay, CNS Cancer panel; assay type: cell-based; conditions: U251
# [9] = system: RPMI-8226; assay: NCI antiproliferative SRB assay, Leukemia panel; assay type: cell-based, Human
# [10] = system: SNB-19; assay: NCI antiproliferative SRB assay, CNS Cancer panel; assay type: cell-based, Human
# [11] = system: MALME-3M; assay: NCI antiproliferative SRB assay, Melanoma panel; assay type: cell-based, Human
# [12] = system: SF-539; assay: NCI antiproliferative SRB assay, CNS Cancer panel; assay type: cell-based, Human
# [13] = system: UACC-257; assay: NCI antiproliferative SRB assay, Melanoma panel; assay type: cell-based, Human
# [14] = system: RXF 393; assay: NCI antiproliferative SRB assay, Renal Cancer panel; assay type: cell-based, Human
# [15] = system: CNS Cancer cell line panel; assay: NCI antiproliferative assay, panel summary; assay type: cell-based, Human
# [16] = system: HCT-116; assay: NCI antiproliferative SRB assay, Colon Cancer panel; assay type: cell-based, Human
# [17] = system: PC-3; assay: NCI antiproliferative SRB assay, Prostate Cancer panel; assay type: cell-based, Human
# [18] = system: K-562; assay: NCI antiproliferative SRB assay, Leukemia panel; assay type: cell-based, Human
# [19] = system: Breast Cancer cell line panel; assay: NCI antiproliferative assay, panel summary; assay type: cell-based, Human
# [20] = system: MDA-MB-435; assay: NCI antiproliferative SRB assay, Melanoma panel; assay type: cell-based
# [21] = system: COLO 205; assay: NCI antiproliferative SRB assay, Colon Cancer panel; assay type: cell-based, Human
# [22] = system: CCRF-CEM; assay: NCI antiproliferative SRB assay, Leukemia panel; assay type: cell-based, Human
# [23] = system: Non-Small Cell Lung Cancer cell line panel; assay: NCI antiproliferative assay, panel summary; assay type: cell-based, Human
# [24] = system: LOX IMVI; assay: NCI antiproliferative SRB assay, Melanoma panel; assay type: cell-based, Human
# [25] = system: A549/ATCC; assay: NCI antiproliferative SRB assay, Non-Small Cell Lung Cancer panel; assay type: cell-based, Human
# [26] = system: NCI-H23; assay: as above; assay type: cell-based, Human
# [27] = system: KM12; assay: NCI antiproliferative SRB assay, Colon Cancer panel; assay type: cell-based, Human
# [28] = system: IGROV1; assay: NCI antiproliferative SRB assay, Ovarian Cancer panel; assay type: cell-based, Human
# [29] = system: OVCAR-4; assay: as above; assay type: cell-based, Human
# [30] = system: SK-OV-3; assay: as above; assay type: cell-based, Human
# [31] = system: NCI/ADR-RES; assay: as above; assay type: cell-based, Human
# [32] = Homo sapiens, 5-dose 0.01-100 µM
# [33] = Homo sapiens, 5-dose 0.01-100 µM, read-out: LC50 (the source's name)
# [34] = Homo sapiens, 5-dose assay, read-out: Sub Panel MID b (mean GI50 of panel)
smiles,measurement,setting,value
COc1cc(/C=C/c2cc(/C=C/c3ccc(O)c(OC)c3)n(C(=O)Nc3ccc(C(F)(F)F)cc3)n2)ccc1O [3c],TGI,[1]; 5-dose 0.01-100 µM,4.08 µM
same,GI50,[1]; [32],1.94 µM
same,CC50,[1]; [33],8.58 µM
same,%GI,[1]; one dose 10 µM,70.52%
same,GP (growth percent),[1]; one dose 10 µM,29.48
same,TGI,[2]; 5-dose 0.01-100 µM,9.62 µM
same,GI50,[2]; Homo sapiens,3.06 µM
same,CC50,[2]; [33],> 100 µM
same,%GI,[2]; one dose 10 µM,45.21%
same,GP (growth percent),[2]; one dose 10 µM,54.79
same,Mean % GI,[3]; 10 µM,47.62%
same,Selectivity Ratio (MID a:MID b),[3]; 5-dose assay,0.88
same,GI50,[3]; [34],3.24 µM
same,TGI,[4]; 5-dose 0.01-100 µM,4.97 µM
same,GI50,[4]; [32],2.16 µM
same,CC50,[4]; [33],15.2 µM
same,GP (growth percent),[4]; one dose 10 µM,115.18
same,GI50,[5]; [32],1.94 µM
same,LC50 (50% lethal concentration),[5]; [32],> 100 µM
same,%GI,[5]; one dose 10 µM,57.15%
same,GP (growth percent),[5]; one dose 10 µM,42.85
same,Mean % GI,[6]; 10 µM,73.05%
same,Selectivity Ratio (MID a:MID b),[6]; 5-dose assay,1.31
same,GI50,[6]; [34],2.17 µM
same,TGI,[7]; 5-dose 0.01-100 µM,5.90 µM
same,GI50,[7]; [32],2.19 µM
same,CC50,[7]; [33],23.9 µM
same,%GI,[7]; one dose 10 µM,42.01%
same,GP (growth percent),[7]; one dose 10 µM,57.99
same,GI50,"[8]; Homo sapiens, U-251, 5-dose 0.01-100 µM, read-out: GI50",2.49 µM
same,CC50,"[8]; Homo sapiens, U-251, 5-dose 0.01-100 µM, read-out: LC50 (the source's name)",> 100 µM
same,TGI,[8]; 5-dose 0.01-100 µM,6.86 µM
same,%GI,[8]; one dose 10 µM,90.29%
same,GP (growth percent),[8]; one dose 10 µM,9.71
same,TGI,[9]; 5-dose 0.01-100 µM,6.59 µM
same,GI50,[9]; [32],2.09 µM
same,CC50,[9]; [33],> 100 µM
same,%GI,[9]; one dose 10 µM,100.21%
same,GP (growth percent),[9]; one dose 10 µM,−0.21
same,TGI,[10]; 5-dose 0.01-100 µM,11.2 µM
same,GI50,[10]; [32],3.16 µM
same,CC50,[10]; [33],36.9 µM
same,%GI,[10]; one dose 10 µM,51.32%
same,GP (growth percent),[10]; one dose 10 µM,48.68
same,TGI,[11]; 5-dose 0.01-100 µM,8.40 µM
same,GI50,[11]; [32],2.89 µM
same,CC50,[11]; [33],32.6 µM
same,%GI,[11]; one dose 10 µM,47.73%
same,GP (growth percent),[11]; one dose 10 µM,52.27
same,TGI,[12]; 5-dose 0.01-100 µM,7.45 µM
same,GI50,[12]; [32],2.37 µM
same,CC50,[12]; [33],56 µM
same,%GI,[12]; one dose 10 µM,70.99%
same,GP (growth percent),[12]; one dose 10 µM,29.01
same,TGI,[13]; 5-dose 0.01-100 µM,14.0 µM
same,GI50,[13]; [32],4.01 µM
same,CC50,[13]; [33],42 µM
same,%GI,[13]; one dose 10 µM,74.99%
same,GP (growth percent),[13]; one dose 10 µM,25.01
same,TGI,[14]; 5-dose 0.01-100 µM,3.73 µM
same,GI50,[14]; [32],1.98 µM
same,%GI,[14]; one dose 10 µM,77.34%
same,GP (growth percent),[14]; one dose 10 µM,22.66
same,Mean % GI,[15]; 10 µM,53.38%
same,Selectivity Ratio (MID a:MID b),[15]; 5-dose assay,1.02
same,GI50,[15]; [34],2.78 µM
same,TGI,[16]; 5-dose 0.01-100 µM,2.94 µM
same,GI50,[16]; [32],1.51 µM
same,CC50,[16]; [33],5.7 µM
same,%GI,[16]; one dose 10 µM,153.67%
same,GP (growth percent),[16]; one dose 10 µM,−53.67
same,TGI,[17]; 5-dose 0.01-100 µM,13.5 µM
same,GI50,[17]; [32],3.21 µM
same,CC50,[17]; [33],> 100 µM
same,%GI,[17]; one dose 10 µM,61.97%
same,GP (growth percent),[17]; one dose 10 µM,38.03
same,TGI,[18]; 5-dose 0.01-100 µM,>100 µM
same,GI50,"[18]; Homo sapiens, K562, 5-dose 0.01-100 µM",2.53 µM
same,CC50,"[18]; Homo sapiens, K562, 5-dose 0.01-100 µM, read-out: LC50 (the source's name)",> 100 µM
same,%GI,[18]; one dose 10 µM,90.55%
same,GP (growth percent),[18]; one dose 10 µM,9.45
same,Mean % GI,[19]; 10 µM,60.04%
same,Selectivity Ratio (MID a:MID b),[19]; 5-dose assay,0.99
same,GI50,[19]; [34],2.86 µM
same,TGI,[20]; 5-dose 0.01-100 µM,7.06 µM
same,GI50,[20]; Homo sapiens,2.35 µM
same,CC50,[20]; [33],33.4 µM
same,%GI,[20]; one dose 10 µM,72.15%
same,GP (growth percent),[20]; one dose 10 µM,27.85
same,TGI,[21]; 5-dose 0.01-100 µM,4.50 µM
same,GI50,[21]; [32],2.05 µM
same,CC50,[21]; [33],9.91 µM
same,%GI,[21]; one dose 10 µM,48.73%
same,GP (growth percent),[21]; one dose 10 µM,51.27
same,GI50,[22]; [32],2.63 µM
same,CC50,[22]; [33],> 100 µM
same,%GI,[22]; one dose 10 µM,96.58%
same,GP (growth percent),[22]; one dose 10 µM,3.42
same,Mean % GI,[23]; 10 µM,48.83%
same,Selectivity Ratio (MID a:MID b),[23]; 5-dose assay,0.82
same,GI50,[23]; [34],3.44 µM
same,TGI,[24]; 5-dose 0.01-100 µM,3.71 µM
same,GI50,[24]; [32],1.77 µM
same,%GI,[24]; one dose 10 µM,90.89%
same,GP (growth percent),[24]; one dose 10 µM,9.11
same,TGI,[25]; 5-dose 0.01-100 µM,>100 µM
same,GI50,[25]; [32],4.11 µM
same,LC50 (50% lethal concentration),[25]; [32],> 100 µM
same,%GI,[25]; one dose 10 µM,57.05%
same,GP (growth percent),[25]; one dose 10 µM,42.95
same,TGI,[26]; 5-dose 0.01-100 µM,6.48 µM
same,GI50,[26]; [32],2.13 µM
same,CC50,[26]; [33],> 100 µM
same,%GI,[26]; one dose 10 µM,48.71%
same,GP (growth percent),[26]; one dose 10 µM,51.29
same,TGI,[27]; 5-dose 0.01-100 µM,5.59 µM
same,GI50,[27]; [32],2.33 µM
same,CC50,[27]; [33],54 µM
same,%GI,[27]; one dose 10 µM,58.62%
same,GP (growth percent),[27]; one dose 10 µM,41.38
same,TGI,[28]; 5-dose 0.01-100 µM,11.6 µM
same,GI50,"[28]; Homo sapiens, IGROV-1, 5-dose 0.01-100 µM",2.77 µM
same,CC50,"[28]; Homo sapiens, IGROV-1, 5-dose 0.01-100 µM, read-out: LC50 (the source's name)",> 100 µM
same,%GI,[28]; one dose 10 µM,57.18%
same,GP (growth percent),[28]; one dose 10 µM,42.82
same,TGI,[29]; 5-dose 0.01-100 µM,52.7 µM
same,GI50,[29]; [32],3.51 µM
same,CC50,[29]; [33],> 100 µM
same,%GI,[29]; one dose 10 µM,23.29%
same,GP (growth percent),[29]; one dose 10 µM,76.71
same,TGI,[30]; 5-dose 0.01-100 µM,66.7 µM
same,GI50,[30]; [32],4.02 µM
same,CC50,[30]; [33],> 100 µM
same,%GI,[30]; one dose 10 µM,33.91%
same,GP (growth percent),[30]; one dose 10 µM,66.09
same,TGI,[31]; 5-dose 0.01-100 µM,>100 µM
same,GI50,[31]; [32],3.51 µM
same,CC50,[31]; [33],> 100 µM
same,%GI,[31]; one dose 10 µM,48.35%
same,GP (growth percent),[31]; one dose 10 µM,51.65

# From paper PMC8398451, “Molecular Engineering of Curcumin, an Active Constituent of Curcuma longa L. (Turmeric) of the Family Zingiberaceae with Improved Antiproliferative Activity” (Plants, 2021)
